Assay results reported in patent US20240299393A1, “SMALL MOLECULE DISRUPTORS OF PROTEIN INTERACTIONS IN HISTONE DEACETYLASE COMPLEXES” (Dana-Farber Cancer Institute, Inc., priority 2021, published 2024).
“Also recorded” adds a separate entry of the source.

Columns and labels:
[1] = tested on: yeast S. cerevisiae Sin3 PAH1 and PAH3 domains; test: Ligand-detected NMR, yeast Sin3 PAH1 and PAH3; type: binding; details: FIG. 27
Protocol: Ligand-detected NMR experiments: all results were acquired using a 3 mm tube at 25° C. on a Bruker 600 MHz Avance II system equipped with a CPPTCI cryoprobe (Bruker BioSpin Corp.). In all experiments, the concentration of E6R was fixed at 300 μM (from a stock of 25 mM in deuterated DMSO) and the concentration of the protein at 10 μM. The volume of deuterated DMSO was kept constant (1.5%) in all tested samples. Right before the experiments, the compound and protein were diluted in 1×PBS containing 0.1% deuterated dithiothreitol (DTT) to a total volume of 200 μL. Samples were diluted by 5% with D2O for magnetic field lock. Spectra were acquired for ligand only, protein only, and ligand+protein. […] STD experiments [Mayer et al 2001] were acquired with 160 scans, with protein irradiation applied for 3 s at 0 ppm and −20 ppm for the on and off resonance experiments, respectively. On and off resonance spectra were collected and stored separately. One-dimensional CPMG-R2 edited experiments [Hajduk et al 1997] were collected for samples with and without proteins using seven CPMG delays (0, 25, 50, 100, 300, 500, and 800 ms) with four scans per delay. Proton spectra used to measure DLB and chemical shift perturbations in the absence and presence of the proteins were recorded with 16 scans using a recycle delay of 3 s. […]

[2] = tested on: human neuroblastoma SK-N-BE(2)-C xenograft; test: Neuroblastoma xenograft efficacy study; type: in vivo; details: E6R 50 mg/kg, SAHA 20 mg/kg
Protocol: Xenografts studies were performed at the TRACE PDX platform of the Leuven Cancer Institute (LKI) at KU Leuven-UZ Leuven. Treatment experiments included 24 NMRI-Foxlnu nude mice (Taconic) implanted with human neuroblastoma cell line SK-N-BE(2)-C(2 million cells/implant/mouse). Cells, tested for a full panel of murine pathogens (Impact profile I, IDEXX) prior to engraftment, were resuspended in 50% matrigel solution in PBS for injection in the mouse right flank. When tumors reached a volume of approximately 200 mm^3, mice were randomly assigned to vehicle (34% DMSO, 55% saline 0.9%, 5% ethanol, 5% kolliphor, 1% NaOH 1 M), E6R (50 mg/kg), or SAHA (20 mg/kg) treatment groups. Treatments were administered daily intraperitoneally for 10 days or until reaching human endpoint (i.e. tumor volume >1,500 mm^3). Tumors were measured daily with digital calipers, and volume was estimated as V=L×W×H×(π/6) (L: length; W: width; H: height). […] All data were analyzed using GraphPad Prism 8. Comparisons between the vehicle and treated groups were tested for statistical significance using […].

Sin3-Ume6 = biological target: T1, Sin3-Ume6 (Saccharomyces cerevisiae, UniProt P22579); test: GPCA binary PPI inhibition in HEK293T cells, Sin3-Ume6; type: cell-based, human HEK293T cells
T1 construct: ORFs corresponding to full-length subunits of the Rpd3L HDAC complex were PCR-amplified from yeast genomic DNA; expressed in transfected cells; host or cells: HEK293T
Protocol: GPCA (N1-N2 version) was implemented as reported in [Choi et al 2019]. HEK293T cells were seeded at 6×10^4 cells per well in 96-well, flat-bottom, cell culture microplates (Greiner Bio-One, #655083), and cultured in Dulbecco's modified Eagle's medium (DMEM) supplemented with 10% fetal calf serum at 37° C. and 5% CO2. Twenty-four hours later, cells were transfected with 100 ng of each GPCA plasmid (GPCA-N1 and GPCA-N2) using linear polyethylenimine (PEI) to co-express the protein pairs fused with complementary luciferase fragments, Luc1 and Luc2. The DNA/PEI ratio used for transfection was 1:3 (mass:mass). […] Luminescence was measured by auto-injecting 50 μL Renilla luciferase substrate (Renilla Luciferase Assay system, catalog No. E2820, Promega) per well and integrating light output for 4 s using a TriStar luminometer (Berthold).
The ability of compounds to inhibit binary PPIs in the Sin3/Rpd3L HDAC complex was tested by GPCA in a high-throughput screening format. […] The luminescence signal for each PPI was measured by averaging the different DMSO replicates, and calculating the standard deviation of DMSO values for each interaction. […] For each interaction, a particular compound was scored as a PPI inhibitor when it decreased its luminescence signal by at least three standard deviations compared to the corresponding averaged DMSO value. […]

T1 sequence (P22579 whole entry): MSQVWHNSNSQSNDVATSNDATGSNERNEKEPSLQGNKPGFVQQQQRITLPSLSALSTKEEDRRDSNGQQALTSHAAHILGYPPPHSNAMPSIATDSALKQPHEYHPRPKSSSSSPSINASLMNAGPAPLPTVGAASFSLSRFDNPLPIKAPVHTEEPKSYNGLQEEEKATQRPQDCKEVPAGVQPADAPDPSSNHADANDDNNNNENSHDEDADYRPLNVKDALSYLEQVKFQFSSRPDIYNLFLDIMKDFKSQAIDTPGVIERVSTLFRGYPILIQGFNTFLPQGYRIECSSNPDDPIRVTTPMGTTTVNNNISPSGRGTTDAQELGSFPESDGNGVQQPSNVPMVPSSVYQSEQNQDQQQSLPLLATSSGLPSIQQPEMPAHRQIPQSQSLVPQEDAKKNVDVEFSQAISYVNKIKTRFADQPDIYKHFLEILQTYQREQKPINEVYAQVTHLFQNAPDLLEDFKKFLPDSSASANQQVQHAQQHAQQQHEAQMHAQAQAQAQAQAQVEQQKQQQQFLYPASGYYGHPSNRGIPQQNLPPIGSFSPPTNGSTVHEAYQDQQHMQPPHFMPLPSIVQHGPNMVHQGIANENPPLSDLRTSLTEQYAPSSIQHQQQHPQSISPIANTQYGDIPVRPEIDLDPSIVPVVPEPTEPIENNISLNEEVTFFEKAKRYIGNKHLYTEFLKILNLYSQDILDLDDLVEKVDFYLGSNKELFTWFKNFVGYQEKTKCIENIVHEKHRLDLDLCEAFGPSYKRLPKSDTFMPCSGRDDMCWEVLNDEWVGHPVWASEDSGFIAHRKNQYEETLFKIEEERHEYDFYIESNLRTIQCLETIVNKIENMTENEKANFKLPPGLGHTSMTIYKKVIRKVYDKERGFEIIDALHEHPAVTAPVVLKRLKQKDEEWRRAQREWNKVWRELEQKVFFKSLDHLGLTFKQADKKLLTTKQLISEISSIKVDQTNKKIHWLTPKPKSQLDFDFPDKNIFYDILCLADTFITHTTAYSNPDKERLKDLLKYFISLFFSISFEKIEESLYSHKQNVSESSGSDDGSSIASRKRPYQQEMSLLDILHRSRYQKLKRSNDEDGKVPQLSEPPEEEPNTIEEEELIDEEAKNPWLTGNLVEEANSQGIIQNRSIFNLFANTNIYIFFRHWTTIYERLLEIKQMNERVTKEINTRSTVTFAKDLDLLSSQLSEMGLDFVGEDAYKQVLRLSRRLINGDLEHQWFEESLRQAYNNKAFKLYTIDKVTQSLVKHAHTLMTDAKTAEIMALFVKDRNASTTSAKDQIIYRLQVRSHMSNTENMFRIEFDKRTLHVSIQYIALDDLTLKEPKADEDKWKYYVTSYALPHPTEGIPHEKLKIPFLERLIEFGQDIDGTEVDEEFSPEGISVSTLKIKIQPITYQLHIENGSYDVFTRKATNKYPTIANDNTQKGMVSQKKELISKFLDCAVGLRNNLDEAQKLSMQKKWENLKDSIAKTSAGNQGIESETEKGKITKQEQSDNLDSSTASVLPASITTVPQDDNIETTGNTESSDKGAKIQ

## C[C@@H](NC(=O)c1c(O)n2ccccc2nc1=O)c1ccccc1 [E6R, 4-hydroxy-2-oxo-N—((R)-1-phenylethyl)-3,4-dihydro-2H-pyrido[, 2-a]pyrimidine-3-carboxamide]
[1]
  binding to other PAH domains of yeast Sin3 by NMR: can bind
[2]; daily
  tolerability and body weight of xenografted mice: did not affect mice weight; also recorded: well-tolerated
[2]; daily intraperitoneally 10 days
  growth of neuroblastoma tumors compared to vehicle: significantly reduced the growth

## CC(NC(=O)c1c(O)n2ccccc2nc1=O)c1ccccc1 (racemic) [E6]
Sin3-Ume6; 10 μM, 1 h
  inhibition of Sin3-Ume6 PPI (fold change over DMSO): ~2.5 fold
Sin3-Ume6; GPCA
  inhibition of Sin3-Ume6 PPI: selectively inhibit
